Experimental data published in US20060069132A1, “Azolecarboxamide herbicides” (priority 2004, published 2006).

Assays:
[1] = system: small flower umbrella sedge; assay: Test B flooded paddy test; type: in vivo, Cyperus difformis; conditions: 1000 g ai/ha, visual rating, scale 0 to 100 (0 no effect, 100 complete control), 13 to 15 days
Method in brief: (§1)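 Postemergence plants were sprayed with formulated test chemicals at 2 to 18 cm height (1- to 4-leaf stage); paddy species were grown to the 2-leaf stage. After 13 to 15 days in a greenhouse, injury was rated visually against untreated controls on a 0–100 scale (0 = no effect, 100 = complete control).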

barnyardgrass [2] = assay: Test B flooded paddy test; type: in vivo, Echinochloa crus-galli; conditions: 1000 g ai/ha, visual rating, scale 0 to 100 (0 no effect, 100 complete control), 13 to 15 days
Method in brief: as §1

giant foxtail [3] = assay: Test B pre-/postemergence herbicide test; type: in vivo, Setaria faberi; conditions: for Plant response rating, Foxtail, Giant: preemergence; for Foxtail, Giant plant response rating: postemergence, visual rating, scale 0 (no effect) to 100 (complete control)
Method in brief: (§2)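 Greenhouse pot assay with simultaneous preemergence (treated seed) and postemergence (2–18 cm seedlings) applications of surfactant-containing, non-phytotoxic solvent formulations. Response scored visually 13–15 days later on a 0–100 scale, 100 meaning complete control.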

redroot pigweed = assay: Test A pre-/postemergence herbicide test; type: in vivo, Amaranthus retroflexus
Method in brief: (§3)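 Greenhouse injury scoring (0–100, complete control = 100) at approximately ten days follows simultaneous pre- and postemergence application. Soil received a directed spray after seeding; seedlings of 2–10 cm at the one- to two-leaf stage were sprayed to runoff.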

morningglory [4] = assay: Test A pre-/postemergence herbicide test; type: in vivo, Ipomoea spp.
Method in brief: as §3

corn = assay: Test B pre-/postemergence herbicide test; type: in vivo, Zea mays; conditions: for Plant response rating, Corn: preemergence; for Corn plant response rating: postemergence, visual rating, scale 0 (no effect) to 100 (complete control)
Method in brief: as §2

Surinam grass = assay: Test B pre-/postemergence herbicide test; type: in vivo, Urochloa decumbens; conditions: for Plant response rating, Surinam Grass: preemergence; for Surinam Grass plant response rating: postemergence, visual rating, scale 0 (no effect) to 100 (complete control)
Method in brief: as §2

velvetleaf [5] = assay: Test B pre-/postemergence herbicide test; type: in vivo, Abutilon theophrasti; conditions: for Plant response rating, Velvetleaf: preemergence; for Velvetleaf plant response rating: postemergence, visual rating, scale 0 (no effect) to 100 (complete control)
Method in brief: as §2

wild oat = assay: Test B postemergence herbicide test; type: in vivo, Avena fatua; conditions: postemergence, visual rating, scale 0 (no effect) to 100 (complete control)
Method in brief: as §1

rice [6] = assay: Test B pre-/postemergence herbicide test; type: in vivo, Oryza sativa; conditions: 500 g ai/ha; visual rating 0-100, 0 no effect, 100 complete control; preemergence
Method in brief: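 Species tested were Echinochloa crus-galli, Ipomoea coccinea, Xanthium strumarium and Oryza sativa, treated both before emergence and at the 1- to 4-leaf stage; rice and barnyardgrass were also tested under flooding at 2 leaves. Greenhouse incubation lasted 13–15 days before visual 0–100 scoring.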

lambsquarters = assay: Test B pre-/postemergence herbicide test; type: in vivo, Chenopodium album; conditions: for Plant response rating, Lambsquarters: preemergence; for Lambsquarters plant response rating: postemergence, visual rating, scale 0 (no effect) to 100 (complete control)
Method in brief: as §2

giant foxtail [7] = assay: Test A pre-/postemergence herbicide test; type: in vivo, Setaria faberi
Method in brief: as §3

large crabgrass [8] = assay: Test A pre-/postemergence herbicide test; type: in vivo, Digitaria sanguinalis
Method in brief: as §3

barnyardgrass [9] = assay: Test B pre-/postemergence herbicide test; type: in vivo, Echinochloa crus-galli; conditions: for Plant response rating, Barnyardgrass: preemergence; for Barnyardgrass plant response rating: postemergence, visual rating, scale 0 (no effect) to 100 (complete control)
Method in brief: (§4)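 Seeds were planted and treated preemergence with compounds formulated in a non-phytotoxic solvent mixture containing surfactant, while plants at the 1- to 4-leaf stage (2 to 18 cm) received postemergence sprays. Flooded paddy plants were grown to the 2-leaf stage. After 13 to 15 days in a greenhouse, injury was visually rated 0–100 against untreated controls.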

pigweed = assay: Test B pre-/postemergence herbicide test; type: in vivo, Amaranthus retroflexus; conditions: for Plant response rating, Pigweed: preemergence; for Pigweed plant response rating: postemergence, visual rating, scale 0 (no effect) to 100 (complete control)
Method in brief: as §2

cocklebur = assay: Test B pre-/postemergence herbicide test; type: in vivo, Xanthium strumarium; conditions: for Plant response rating, Cocklebur: preemergence; for Cocklebur plant response rating: postemergence, visual rating, scale 0 (no effect) to 100 (complete control)
Method in brief: as §4

velvetleaf [10] = assay: Test A pre-/postemergence herbicide test; type: in vivo, Abutilon theophrasti
Method in brief: as §3

barnyardgrass [11] = assay: Test A pre-/postemergence herbicide test; type: in vivo, Echinochloa crus-galli
Method in brief: as §3

wheat = assay: Test B postemergence herbicide test; type: in vivo, Triticum aestivum; set-up: key to Wheat plant response rating: 0 = no effect, 100 = complete control; conditions: postemergence, visual rating, scale 0 (no effect) to 100 (complete control)
Method in brief: as §1

morningglory [12] = assay: Test B pre-/postemergence herbicide test; type: in vivo, Ipomoea coccinea; conditions: for Plant response rating, Morningglory: preemergence; for Morningglory plant response rating: postemergence, visual rating, scale 0 (no effect) to 100 (complete control)
Method in brief: as §4

ducksalad = assay: Test B flooded paddy test; type: in vivo, Heteranthera limosa; conditions: 1000 g ai/ha, visual rating, scale 0 to 100 (0 no effect, 100 complete control), 13 to 15 days
Method in brief: as §1

blackgrass = assay: Test B postemergence herbicide test; type: in vivo, Alopecurus myosuroides; conditions: postemergence, visual rating, scale 0 (no effect) to 100 (complete control)
Method in brief: as §1

large crabgrass [13] = assay: Test B pre-/postemergence herbicide test; type: in vivo, Digitaria sanguinalis; conditions: for Plant response rating, Crabgrass, Large: preemergence; for Crabgrass, Large plant response rating: postemergence, visual rating, scale 0 (no effect) to 100 (complete control)
Method in brief: as §2

rice [14] = assay: Test B flooded paddy test; type: in vivo, Oryza sativa; conditions: 1000 g ai/ha, visual rating, scale 0 to 100 (0 no effect, 100 complete control), 13 to 15 days
Method in brief: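 Greenhouse test; postemergence application to plants at 1–4 leaves (2–18 cm); paddy species at 2 leaves; evaluated visually vs controls at 13–15 days; scale 0–100 (100 = complete control).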

[15] = 500 g ai/ha, visual rating 0-100, 0 no effect, 100 complete control
[16] = 125 g ai/ha, 0 to 100 scale, 0 is no effect, 100 is complete control
[17] = Postemergence, 250 g ai/ha, 0 to 100 scale, 0 no effect, 100 complete control
[18] = Postemergence, 1000 g ai/ha, 0 to 100 scale, 0 no effect, 100 complete control
[19] = Preemergence, 1000 g ai/ha, visual rating, 0 to 100 scale (0 no effect, 100 complete control)
[20] = preemergence, 250 g ai/ha, visual injury, 0 to 100 scale (0 no effect, 100 complete control)

`CCn1nc(C(C)(C)C)cc1C(=O)Nc1cccc(S(C)(=O)=O)c1` [Compound 133] was tested, and the “Sedge, Umbrella plant response rating” value [1] was 40, the “Barnyardgrass plant response rating” value (barnyardgrass [2]) was 20 and the “Plant response rating, Foxtail, Giant” value (giant foxtail [3]; [15]) was 40. The “Foxtail, Giant plant response rating” value (giant foxtail [3]; 125 g ai/ha) was 0, the “Foxtail, Giant plant response rating” value (giant foxtail [3]; 500 g ai/ha) was 20 and the “Plant response rating, Foxtail, Giant” value (giant foxtail [3]; [16]) was 0. The “Pigweed plant response rating” value (redroot pigweed; [17]) was 30, the “Plant response rating, Pigweed” value (redroot pigweed; [18]) was 75 and the “Pigweed plant response rating” value (redroot pigweed; [19]) was 65. The “Pigweed plant response rating” value (redroot pigweed; [20]) was 10, the “Morningglory plant response rating” value (morningglory [4]; [17]) was 10 and the “Plant response rating, Morningglory” value (morningglory [4]; [18]) was 20. The “Morningglory plant response rating” value (morningglory [4]; [19]) was 0, the “Morningglory plant response rating” value (morningglory [4]; [20]) was 0 and the “Plant response rating, Corn” value (corn; [15]) was 0. For the same compound, the “Corn plant response rating” value (corn; 125 g ai/ha) was 10, the “Corn plant response rating” value (corn; 500 g ai/ha) was 20 and the “Plant response rating, Corn” value (corn; [16]) was 0. For the same compound, the “Plant response rating, Surinam Grass” value (Surinam grass; [15]) was 20, the “Surinam Grass plant response rating” value (Surinam grass; 125 g ai/ha) was 0 and the “Surinam Grass plant response rating” value (Surinam grass; 500 g ai/ha) was 50. The “Plant response rating, Surinam Grass” value (Surinam grass; [16]) was 0, the “Plant response rating, Velvetleaf” value (velvetleaf [5]; [15]) was 70 and the “Velvetleaf plant response rating” value (velvetleaf [5]; 125 g ai/ha) was 10. For the same compound, the “Velvetleaf plant response rating” value (velvetleaf [5]; 500 g ai/ha) was 50, the “Plant response rating, Velvetleaf” value (velvetleaf [5]; [16]) was 20 and the “Oat, Wild plant response rating” value (wild oat; 125 g ai/ha) was 20. For the same compound, the “Oat, Wild plant response rating” value (wild oat; 500 g ai/ha) was 20, the “Plant response rating, Rice” value (rice [6]) was 40 and the “Plant response rating, Lambsquarters” value (lambsquarters; [15]) was 100. For the same compound, the “Lambsquarters plant response rating” value (lambsquarters; 125 g ai/ha) was 60, the “Lambsquarters plant response rating” value (lambsquarters; 500 g ai/ha) was 70 and the “Plant response rating, Lambsquarters” value (lambsquarters; [16]) was 50. The “Foxtail, Giant plant response rating” value (giant foxtail [7]; [17]) was 10, the “Plant response rating, Foxtail, Giant” value (giant foxtail [7]; [18]) was 20 and the “Foxtail, Giant plant response rating” value (giant foxtail [7]; [19]) was 30. The “Foxtail, Giant plant response rating” value (giant foxtail [7]; [20]) was 0, the “Crabgrass, Large plant response rating” value (large crabgrass [8]; [17]) was 10 and the “Plant response rating, Crabgrass, Large” value (large crabgrass [8]; [18]) was 20. For the same compound, the “Crabgrass, Large plant response rating” value (large crabgrass [8]; [19]) was 80, the “Crabgrass, Large plant response rating” value (large crabgrass [8]; [20]) was 25 and the “Plant response rating, Barnyardgrass” value (barnyardgrass [9]; [15]) was 60. The “Barnyardgrass plant response rating” value (barnyardgrass [9]; 125 g ai/ha) was 0, the “Barnyardgrass plant response rating” value (barnyardgrass [9]; 500 g ai/ha) was 40 and the “Plant response rating, Barnyardgrass” value (barnyardgrass [9]; [16]) was 10. The “Plant response rating, Pigweed” value (pigweed; [15]) was 100, the “Pigweed plant response rating” value (pigweed; 125 g ai/ha) was 20 and the “Pigweed plant response rating” value (pigweed; 500 g ai/ha) was 50. The “Plant response rating, Pigweed” value (pigweed; [16]) was 100, the “Plant response rating, Cocklebur” value (cocklebur; [15]) was 0 and the “Cocklebur plant response rating” value (cocklebur; 125 g ai/ha) was 10. The “Cocklebur plant response rating” value (cocklebur; 500 g ai/ha) was 60, the “Plant response rating, Cocklebur” value (cocklebur; [16]) was 0 and the “Velvetleaf plant response rating” value (velvetleaf [10]; [17]) was 10. For the same compound, the “Plant response rating, Velvetleaf” value (velvetleaf [10]; [18]) was 15, the “Velvetleaf plant response rating” value (velvetleaf [10]; [19]) was 35 and the “Velvetleaf plant response rating” value (velvetleaf [10]; [20]) was 5. The “Barnyardgrass plant response rating” value (barnyardgrass [11]; [17]) was 20, the “Plant response rating, Barnyardgrass” value (barnyardgrass [11]; [18]) was 55 and the “Barnyardgrass plant response rating” value (barnyardgrass [11]; [19]) was 45. The “Barnyardgrass plant response rating” value (barnyardgrass [11]; [20]) was 0, the “Wheat plant response rating” value (wheat; 125 g ai/ha) was 0 and the “Wheat plant response rating” value (wheat; 500 g ai/ha) was 0. The “Plant response rating, Morningglory” value (morningglory [12]; [15]) was 10, the “Morningglory plant response rating” value (morningglory [12]; 125 g ai/ha) was 10 and the “Morningglory plant response rating” value (morningglory [12]; 500 g ai/ha) was 20. The “Plant response rating, Morningglory” value (morningglory [12]; [16]) was 10, the “Ducksalad plant response rating” value (ducksalad) was 50 and the “Blackgrass plant response rating” value (blackgrass; 125 g ai/ha) was 0. The “Blackgrass plant response rating” value (blackgrass; 500 g ai/ha) was 10, the “Plant response rating, Crabgrass, Large” value (large crabgrass [13]; [15]) was 80 and the “Crabgrass, Large plant response rating” value (large crabgrass [13]; 125 g ai/ha) was 10. For the same compound, the “Crabgrass, Large plant response rating” value (large crabgrass [13]; 500 g ai/ha) was 30, the “Plant response rating, Crabgrass, Large” value (large crabgrass [13]; [16]) was 20 and the “Rice plant response rating” value (rice [14]) was 0.
